Test results: US11771084B2, “Preservation of personal care compositions” (SHARON LABORATORIES LTD., priority 2018, dated 2023)
Values after ≈ are worked out from the molar mass of the structure shown. Like-named read-outs stand apart in the source and are kept apart here.

Columns and labels:
[1] = Maltol shielding: absorbance at 410 nm, chelators, stainless steel 316; type: physicochemical; conditions: 0.5% solution of 90% Maltol and 10% Polyquaternium-80 in demineralized water, stainless steel 316 chip 12 hr
Description: Maltol has a metal chelating property. It can bond with metal ions and form a chelate product that can be strongly colored. This reaction is highly likely to happen when maltol is used in a manufacturing process involving steel based equipment. It means that even small quantities of these chelates could induce an undesirable color in a finished cosmetic product. A way to inhibit this phenomenon would be to add to maltol a small quantity of a stronger chelating agent, in order to intercept possible metal ions before Maltol could do so. Thus, an examination of various chelating agents in order to “protect” the Maltol from chelating metal ions was done. Procedure: […]

A. niger ATCC 16404 = assay: MIC evaluation test; type: cell-based, Aspergillus brasiliensis (niger)
Experimental: In another exemplary procedure, MIC evaluation test with A. niger was performed in test tubes. Growth in this case is visually evaluated. A pure culture of a single microorganism was grown in Tryptic soy broth, or sabouraud broth for yeast and mold.
(§1) The culture is standardized using standard microbiological techniques to have a concentration of very near 1 million cells per milliliter.
(§2) The antimicrobial agent is diluted a number of times, with Tryptic soy broth or sabouraud broth for fungi. After the antimicrobial agent had been diluted, a volume of the standardized inoculums was added to each dilution vessel, bringing the microbial concentration to approximately 1,000,000 cells per milliliter. The inoculated, serially diluted antimicrobial agent was incubated at an appropriate temperature for the test organism, 24 hours for bacteria 48 for yeast and 72 for mold.
(§3) MIC results are expressed in ppm.
(§4) The microorganism strains used for the test were E. coli ATCC 8739, P. aeruginosa ATCC 9027, S. aureus ATCC 6538, C. albicans ATCC 10231, A. niger ATCC 16404.

S. aureus ATCC 6538 = assay: MIC evaluation test; type: cell-based, Staphylococcus aureus
Experimental: as §1, §2, §3, §4

P. aeruginosa ATCC 9027 = assay: MIC evaluation test; type: cell-based, Pseudomonas aeruginosa
Experimental: as §1, §2, §3, §4

C. albicans ATCC 10231 = assay: MIC evaluation test; type: cell-based, Candida albicans
Experimental: In additional exemplary procedure, minimum inhibitory concentration (MIC) evaluation test with Candida albicans was performed in test tubes. Growth in this case is visually evaluated. A pure culture of a single microorganism was grown in Tryptic soy broth, or sabouraud broth for yeast and mold.
as §1, §2, §3, §4

E. coli ATCC 8739 = assay: MIC evaluation test; type: cell-based, Escherichia coli
Experimental: as §1, §2, §3, §4

[2] = formulation on stainless steel 304
Experimental: Procedure: To a 0.5% solution of 90% Maltol and 10% Polyquaternium-80 in demineralized water a chelating agent was added in concentrations of 25 ppm, 50 ppm, 100 ppm, 150 ppm, 200 ppm and 250 ppm, then a chip of stainless steel 316 (˜1×1 cm) was added to the solution for 12 hr.
The absorbance at 410 nm was measured with spectrophotometer Genesys 10uv (Thermo Scientific), the blank was a solution of 0.5% 90% Maltol and 10% Polyquaternium-80 in demineralized water.

[3] = Staphylococcus aureus, ATCC6538
[4] = Pseudomonas aeruginosa, ATCC9027

O=C1O[C@H]([C@@H](O)CO)C(O)=C1O [Ascorbic acid]
absorbance at 410 nm ([1]; chelator Concentration (%) 0.5): 0.182 | absorbance at 410 nm ([1]; chelator Concentration (%) 1): 0.162 | absorbance at 410 nm ([1]; chelator Concentration (%) 2): 0.145 | absorbance at 410 nm ([1]; chelator Concentration (%) 3): 0.155 | absorbance at 410 nm ([1]; chelator Concentration (%) 4): 0.101 | absorbance at 410 nm ([1]; chelator Concentration (%) 5): 0.06

CCCCCCCCCCCC[N+](C)(C)Cc1ccccc1.[Cl-] [Benzyldimethyldodecylammonium chloride]
MIC (A. niger ATCC 16404; Aspergillus niger, ATCC16404): < 60 µg/mL | MIC (S. aureus ATCC 6538; [3]): < 60 µg/mL | MIC (P. aeruginosa ATCC 9027; [4]): 120 µg/mL | MIC (C. albicans ATCC 10231; Candida albicans, ATCC10231): < 60 µg/mL | MIC (E. coli ATCC 8739; Escherichia coli, ATCC8739): < 60 µg/mL

O=C(O)CCN(CC(=O)O)CC(=O)O [Beta Alanine diAcetic acid]
absorbance at 410 nm ([1]; chelator Concentration (%) 0.5): 0.133 | absorbance at 410 nm ([1]; chelator Concentration (%) 1): 0.039 | absorbance at 410 nm ([1]; chelator Concentration (%) 2): 0.045 | absorbance at 410 nm ([1]; chelator Concentration (%) 3): 0.124 | absorbance at 410 nm ([1]; chelator Concentration (%) 4): 0.067 | absorbance at 410 nm ([1]; chelator Concentration (%) 5): 0.098

CCCCCCCCCC[N+](C)(C)CCCCCCCCCC.[Cl-] [Didecyldimethylammonium chloride]
MIC (A. niger ATCC 16404; Aspergillus niger, ATCC16404): < 30 µg/mL | MIC (S. aureus ATCC 6538; [3]): < 3 µg/mL | MIC (P. aeruginosa ATCC 9027; [4]): 15 µg/mL | MIC (C. albicans ATCC 10231; Candida albicans, ATCC10231): < 30 µg/mL | MIC (E. coli ATCC 8739; Escherichia coli, ATCC8739): < 3 µg/mL

O=C([O-])CN(CCN(CC(=O)O)CC(=O)O)CC(=O)[O-].[Na+].[Na+] [Disodium EDTA, Ethylenediaminetetraacetic acid disodium salt]
absorbance at 410 nm ([2]; chelator Concentration (%) 0.5): 0.061 | absorbance at 410 nm ([2]; chelator Concentration (%) 1): 0.010 | absorbance at 410 nm ([2]; chelator Concentration (%) 2): 0.026 | absorbance at 410 nm ([2]; chelator Concentration (%) 3): 0.007 | absorbance at 410 nm ([2]; chelator Concentration (%) 4): 0 | absorbance at 410 nm ([2]; chelator Concentration (%) 5): 0 | absorbance at 410 nm ([1]; chelator Concentration (%) 0.5): 0.022 | absorbance at 410 nm ([1]; chelator Concentration (%) 1): 0.009 | absorbance at 410 nm ([1]; chelator Concentration (%) 2): 0.004 | absorbance at 410 nm ([1]; chelator Concentration (%) 3): 0.002 | absorbance at 410 nm ([1]; chelator Concentration (%) 4): 0 | absorbance at 410 nm ([1]; chelator Concentration (%) 5): 0

CCCCCCCCCCCC[N+](C)(C)C.[Cl-] [Dodecyltrimethylammonium chloride]
MIC (A. niger ATCC 16404; Aspergillus niger, ATCC16404): 360 µg/mL | MIC (S. aureus ATCC 6538; [3]): < 60 µg/mL | MIC (P. aeruginosa ATCC 9027; [4]): 360 µg/mL | MIC (C. albicans ATCC 10231; Candida albicans, ATCC10231): < 60 µg/mL | MIC (E. coli ATCC 8739; Escherichia coli, ATCC8739): < 60 µg/mL

CCCCCCCCCCCC(=O)N[C@@H](CCCN=C(N)N)C(=O)OCC [Ethyl Lauroyl Arginate]
MIC (A. niger ATCC 16404): 20000 ppm | MIC (S. aureus ATCC 6538): 500 ppm | MIC (P. aeruginosa ATCC 9027): 5000 ppm | MIC (C. albicans ATCC 10231): 10000 ppm | MIC (E. coli ATCC 8739): 2500 ppm

CSCC[C@H](N)C(=O)O [L-Methionine]
absorbance at 410 nm ([1]; chelator Concentration (%) 0.5): 0.113 | absorbance at 410 nm ([1]; chelator Concentration (%) 1): 0.391 | absorbance at 410 nm ([1]; chelator Concentration (%) 2): 0.393 | absorbance at 410 nm ([1]; chelator Concentration (%) 3): 0.102 | absorbance at 410 nm ([1]; chelator Concentration (%) 4): 0.311 | absorbance at 410 nm ([1]; chelator Concentration (%) 5): 0.096

Cc1occc(=O)c1O [Maltol]
MIC (A. niger ATCC 16404; Aspergillus niger, ATCC16404, read-out: MIC): 3150 µg/mL (≈ 25 mM) | MIC (S. aureus ATCC 6538; Staphylococcus aureus, ATCC6538, read-out: MIC): 3800 µg/mL (≈ 30.1 mM) | MIC (P. aeruginosa ATCC 9027; Pseudomonas aeruginosa, ATCC9027, read-out: MIC): < 1350 µg/mL | MIC (C. albicans ATCC 10231; Candida albicans, ATCC10231, read-out: MIC): 2250 µg/mL (≈ 17.8 mM) | MIC (E. coli ATCC 8739; Escherichia coli, ATCC8739, read-out: MIC): 4000 µg/mL (≈ 31.7 mM)

O=C([O-])[C@H](O)[C@@H](O)[C@H](O)[C@H](O)CO.[Na+] [Sodium gluconate]
absorbance at 410 nm ([1]; chelator Concentration (%) 0.5): 0.022 | absorbance at 410 nm ([1]; chelator Concentration (%) 1): 0.04 | absorbance at 410 nm ([1]; chelator Concentration (%) 2): 0.042 | absorbance at 410 nm ([1]; chelator Concentration (%) 3): 0.045 | absorbance at 410 nm ([1]; chelator Concentration (%) 4): 0.005 | absorbance at 410 nm ([1]; chelator Concentration (%) 5): 0.006

COc1cc(C(=O)[O-])ccc1O.[Na+] [Sodium vanillate]
absorbance at 410 nm ([1]; chelator Concentration (%) 0.5): 0.073 | absorbance at 410 nm ([1]; chelator Concentration (%) 1): 0.044 | absorbance at 410 nm ([1]; chelator Concentration (%) 2): 0.386 | absorbance at 410 nm ([1]; chelator Concentration (%) 3): 0.226 | absorbance at 410 nm ([1]; chelator Concentration (%) 4): 0.078 | absorbance at 410 nm ([1]; chelator Concentration (%) 5): 0.12

COc1cc(C=O)ccc1O [Vanillin]
absorbance at 410 nm ([1]; chelator Concentration (%) 0.5): 0.037 | absorbance at 410 nm ([1]; chelator Concentration (%) 1): 0.053 | absorbance at 410 nm ([1]; chelator Concentration (%) 2): 0.062 | absorbance at 410 nm ([1]; chelator Concentration (%) 3): 0.05 | absorbance at 410 nm ([1]; chelator Concentration (%) 4): 0.159 | absorbance at 410 nm ([1]; chelator Concentration (%) 5): 0.048

Zinc gluconate
absorbance at 410 nm ([1]; chelator Concentration (%) 0.5): 0.231 | absorbance at 410 nm ([1]; chelator Concentration (%) 1): 0.136 | absorbance at 410 nm ([1]; chelator Concentration (%) 2): 0.207 | absorbance at 410 nm ([1]; chelator Concentration (%) 3): 0.096 | absorbance at 410 nm ([1]; chelator Concentration (%) 4): 0.147 | absorbance at 410 nm ([1]; chelator Concentration (%) 5): 0.058
